Reference: patent US20030073618A1, “Compounds comprising disulfide-containing peptides and nitrogenous bases, and medical uses thereof” (priority 2001, published 2003)
Like-named read-outs stand apart in the source and are kept apart here.

How the values were obtained:
[1] = tested on: mycobacterium tuberculosis; details: Ex. 16
HIV = type: in vivo; set-up: Hemoglobin / Platelets / Leukocytes / ESR: unit not given beside the values; (CD25+) / HLA-DR / (CD16) / IgA / IgM / IgG / CIC / (CD20+) / CD4+ / CD8+: unit not given here; details: for Lymphocyte count / Weight gained / Karnovsky score: Ex. 13; for Karnovsky score: on admission 75; for Erythrocytes / Hemoglobin / Leukocytes / Monocytes / Platelets / Segmented neutrophils / Stab neutrophils / ESR: general blood test; for (CD16) / (CD20+) / (CD25+) / CD4+ / CD4/CD8 / CD8+ / CIC / HLA-DR / IgA / IgG / IgM: immune blood test

N[C@@H](CCC(=O)N[C@@H](CSSC[C@H](NC(=O)CC[C@H](NP(=O)(O)OC[C@H]1O[C@@H](n2cnc3c(=O)[nH]cnc32)[C@H](O)[C@@H]1O)C(=O)O)C(=O)NCC(=O)[O-])C(=O)NCC(=O)[O-])C(=O)O.[Li+].[Li+] [Li2-GSSG-IMP]
Karnovsky score ([1]; in 2 months): 75 | Temperature ([1]; in 2 months, on admission 37.5): 36.7 °C | Weight gained ([1]; in a month): 4 kg | Karnovsky score ([1]; in a month, on admission 50, with antibacterial therapy): 70 | Bacterial discharge, in the vision field by microscopy ([1]; in a month, on admission up to 100): 2-4 | Karnovsky score ([1]; on treatment completion): 90 | Temperature ([1]; on treatment completion): 36.6 °C | X-ray, destruction cavity ([1]; on treatment completion, on admission 4×3 cm): destruction cavity in the left lung upper lobe healed

Cc1cn([C@H]2C[C@H](O)[C@@H](COP(=O)(O)N[C@@H](CCC(=O)N[C@@H](CSSC[C@H](NC(=O)CC[C@H](N)C(=O)O)C(=O)NCC(=O)[O][Zn])C(=O)NCC(=O)[O][Zn])C(=O)O)O2)c(=O)[nH]c1=O [Zn2-GSSG-TMP]
Viral load (HIV; 1-month treatment): 66000 copies of HIV RNA/ml | Lymphocyte count (HIV; after 1-month treatment): 1276 | Weight gained (HIV; after 1-month treatment): 1.8 kg | Karnovsky score (HIV; after 1-month treatment): 80 | Lymphocyte count (HIV; after completion of treatment): 2295 | Weight gained (HIV; after completion of treatment): 2.5 kg | Karnovsky score (HIV; after completion of treatment): 90 | Viral load (HIV; Initial value): 80000 copies of HIV RNA/ml | Viral load (HIV; Treatment completion): 15000 copies of HIV RNA/ml | Erythrocytes (HIV; 01.04.96): 3.9 | Hemoglobin (HIV; 01.04.96): 126 | Leukocytes (HIV; 01.04.96): 3.5 | Monocytes (HIV; 01.04.96): 2 | Platelets (HIV; 01.04.96): 180 | Segmented neutrophils (HIV; 01.04.96): 41 | Stab neutrophils (HIV; 01.04.96): 3 | ESR (HIV; 03.04.96): 21 | Erythrocytes (HIV; 03.04.96): 3.9 | Hemoglobin (HIV; 03.04.96): 125 | Leukocytes (HIV; 03.04.96): 2.6 | Monocytes (HIV; 03.04.96): 7 | Platelets (HIV; 03.04.96): 170 | Segmented neutrophils (HIV; 03.04.96): 47 | Stab neutrophils (HIV; 03.04.96): 8 | ESR (HIV; 13.03.96): 18 | Erythrocytes (HIV; 13.03.96): 5 | Hemoglobin (HIV; 13.03.96): 160 | Leukocytes (HIV; 13.03.96): 2.4 | Monocytes (HIV; 13.03.96): 2 | Platelets (HIV; 13.03.96): 200 | Segmented neutrophils (HIV; 13.03.96): 48 | Stab neutrophils (HIV; 13.03.96): 5 | ESR (HIV; 15.05.96): 12 | Erythrocytes (HIV; 15.05.96): 4.2 | Hemoglobin (HIV; 15.05.96): 136 | Leukocytes (HIV; 15.05.96): 4.5 | Monocytes (HIV; 15.05.96): 3 | Platelets (HIV; 15.05.96): 190 | Segmented neutrophils (HIV; 15.05.96): 49 | Stab neutrophils (HIV; 15.05.96): 7 | ESR (HIV; 16.04.96): 20 | Erythrocytes (HIV; 16.04.96): 4 | Hemoglobin (HIV; 16.04.96): 129 | Leukocytes (HIV; 16.04.96): 2.9 | Monocytes (HIV; 16.04.96): 2 | Platelets (HIV; 16.04.96): 180 | Segmented neutrophils (HIV; 16.04.96): 45 | Stab neutrophils (HIV; 16.04.96): 8 | ESR (HIV; 28.03.96): 16 | Erythrocytes (HIV; 28.03.96): 4.3 | Hemoglobin (HIV; 28.03.96): 136 | Leukocytes (HIV; 28.03.96): 2.9 | Monocytes (HIV; 28.03.96): 2 | Segmented neutrophils (HIV; 28.03.96): 35 | Stab neutrophils (HIV; 28.03.96): 4 | (CD16) (HIV; 03.04.96): 198 | (CD20+) (HIV; 03.04.96): 217 | (CD25+) (HIV; 03.04.96): 207 | CD4+ (HIV; 03.04.96): 247 | CD4/CD8 (HIV; 03.04.96): 0.89 | CD8+ (HIV; 03.04.96): 277 | CIC (HIV; 03.04.96): 0.175 | HLA-DR (HIV; 03.04.96): 237 | IgA (HIV; 03.04.96): 2.1 | IgG (HIV; 03.04.96): 20 | IgM (HIV; 03.04.96): 4.6 | (CD16) (HIV; 13.03.96): 216 | (CD20+) (HIV; 13.03.96): 256 | (CD25+) (HIV; 13.03.96): 226 | CD4+ (HIV; 13.03.96): 276 | CD4/CD8 (HIV; 13.03.96): 0.78 | CD8+ (HIV; 13.03.96): 354 | CIC (HIV; 13.03.96): 0.09 | HLA-DR (HIV; 13.03.96): 354 | IgA (HIV; 13.03.96): 1.8 | IgG (HIV; 13.03.96): 18.8 | IgM (HIV; 13.03.96): 2.6 | (CD16) (HIV; 15.05.96): 505 | (CD20+) (HIV; 15.05.96): 390 | (CD25+) (HIV; 15.05.96): 482 | CD4+ (HIV; 15.05.96): 574 | CD4/CD8 (HIV; 15.05.96): 0.96 | CD8+ (HIV; 15.05.96): 597 | CIC (HIV; 15.05.96): 0.075 | HLA-DR (HIV; 15.05.96): 665 | IgA (HIV; 15.05.96): 1.5 | IgG (HIV; 15.05.96): 28 | IgM (HIV; 15.05.96): 3.1 | (CD16) (HIV; 17.04.96): 332 | (CD20+) (HIV; 17.04.96): 306 | (CD25+) (HIV; 17.04.96): 332 | CD4+ (HIV; 17.04.96): 319 | CD4/CD8 (HIV; 17.04.96): 0.86 | CD8+ (HIV; 17.04.96): 370 | CIC (HIV; 17.04.96): 0.11 | HLA-DR (HIV; 17.04.96): 434 | IgA (HIV; 17.04.96): 1.6 | IgG (HIV; 17.04.96): 24 | IgM (HIV; 17.04.96): 5.2
